Source: US6153740A, “cDNA encoding nucleoside transporter” (University of Alberta, priority 1997, dated 2000)

How the values were obtained:
human erythrocytes = details: cited from earlier work
[1] = cited from earlier work
cit transporter = details: Terasaki et al, 1993; cited from earlier work
hCNT1a [2] = target: T1, hCNT1a (Homo sapiens, UniProt O00337); experiment: inhibition of hCNT1a-mediated influx of [3H]uridine in Xenopus oocytes
T1 sequence (O00337 with tags, fused parts or gaps E34G/INS140V): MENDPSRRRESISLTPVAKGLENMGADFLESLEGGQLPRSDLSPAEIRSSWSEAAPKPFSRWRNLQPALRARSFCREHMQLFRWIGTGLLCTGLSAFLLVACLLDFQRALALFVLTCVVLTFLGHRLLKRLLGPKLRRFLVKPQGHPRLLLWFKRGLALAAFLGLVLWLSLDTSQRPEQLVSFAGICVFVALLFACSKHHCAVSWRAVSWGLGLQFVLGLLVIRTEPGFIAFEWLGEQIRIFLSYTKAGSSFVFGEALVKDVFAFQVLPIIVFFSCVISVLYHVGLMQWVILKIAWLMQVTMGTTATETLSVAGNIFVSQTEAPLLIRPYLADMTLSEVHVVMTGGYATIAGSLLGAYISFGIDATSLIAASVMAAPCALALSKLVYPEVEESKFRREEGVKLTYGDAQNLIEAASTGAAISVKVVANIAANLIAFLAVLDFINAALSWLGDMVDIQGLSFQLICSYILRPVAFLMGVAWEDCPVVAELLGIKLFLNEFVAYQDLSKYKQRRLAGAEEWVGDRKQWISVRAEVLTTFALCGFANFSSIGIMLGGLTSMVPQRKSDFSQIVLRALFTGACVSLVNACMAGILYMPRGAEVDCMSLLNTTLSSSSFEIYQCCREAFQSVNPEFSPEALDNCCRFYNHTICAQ
Procedure: (§3) H2 O, water-injected oocytes. Fluxes were not corrected for the contribution of endogenous transport activity.
(§4) Defolliculated oocytes (Huang et al. 1993) were injected with either 10 nl of water containing 10 ng RNA transcript or 10 nl of water alone. Nucleoside uptake was measured after 3 d and was traced with the respective [^3 H] or [^14 C]nucleoside (Moravek Biochemicals)(5 μC 3H/ml, 1 μC 14C/ml). […] The transport buffer for adenosine influx experiments contained 1 μM deoxycoformycin to inhibit adenosine deaminase activity. Results are presented as means ±SEM for 10-12 individual oocytes. Kinetic constants were determined by non-linear regression analysis (ENZFITTER, Elsevier-Biosoft). Each experiment was performed at least twice on different batches of oocytes.

hCNT1a [3] = target: T1, hCNT1a; experiment: influx of radiolabelled nucleosides in Xenopus oocytes injected with hCNT1a RNA transcript; details: for mediated flux, hCNT1a: 10 μM permeant (FIG. 14); for mediated influx, hCNT1a (adenosine/deoxyadenosine comparison): separate experiment, inset FIG. 14A
Procedure: Oocytes were injected with either water alone or water containing hCNT1a RNA transcript.
Oocytes were injected with either water alone (.tangle-solidup.) or water containing hCNT1a RNA transcript (.smallcircle.,.circle-solid.).
Adenosine, guanosine and AZT (10 μM) fluxes were compared in the same batch of oocytes injected either with water (open columns) or with RNA transcript for hCNT1a or rCNT1 (hatched and solid columns, respectively).
as §4

rat jejunum = experiment: uptake of [3H]AZT by rat jejunum in vivo
kidney = details: humans, mice (adenosine also rat); cited from earlier work
CNT1 [4] = target: T2, CNT1 (Rattus norvegicus, UniProt Q62674); details: cited from earlier work
T2 sequence (Q62674 1-648): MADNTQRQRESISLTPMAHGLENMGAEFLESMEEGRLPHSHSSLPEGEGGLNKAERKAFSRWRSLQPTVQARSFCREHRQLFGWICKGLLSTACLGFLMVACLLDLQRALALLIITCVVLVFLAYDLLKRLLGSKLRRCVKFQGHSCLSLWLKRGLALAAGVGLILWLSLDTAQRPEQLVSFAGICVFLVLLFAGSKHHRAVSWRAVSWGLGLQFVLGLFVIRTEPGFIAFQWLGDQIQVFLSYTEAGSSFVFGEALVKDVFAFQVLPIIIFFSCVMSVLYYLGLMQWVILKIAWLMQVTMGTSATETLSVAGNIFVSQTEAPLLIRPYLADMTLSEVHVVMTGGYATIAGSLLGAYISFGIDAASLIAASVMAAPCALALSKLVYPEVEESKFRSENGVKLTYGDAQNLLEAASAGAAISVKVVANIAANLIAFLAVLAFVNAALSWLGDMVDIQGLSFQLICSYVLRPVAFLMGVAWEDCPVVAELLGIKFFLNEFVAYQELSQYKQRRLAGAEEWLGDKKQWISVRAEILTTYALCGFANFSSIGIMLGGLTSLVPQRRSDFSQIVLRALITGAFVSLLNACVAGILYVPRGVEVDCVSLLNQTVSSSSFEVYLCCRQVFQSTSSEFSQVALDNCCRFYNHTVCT

CNT1 [5] = target: T2, CNT1; experiment: uptake/influx of radiolabelled nucleosides in Xenopus oocytes injected with pQQH1 (rat CNT1) cRNA; assay type: cell-based; details: for mediated flux, rCNT1: 10 μM permeant (FIG. 14); for mediated influx, rCNT1 (adenosine/deoxyadenosine comparison): separate experiment, inset FIG. 14A
Procedure: (§1) Oocytes were injected with water or RNA transcribed in vitro from the nucleoside transporter cDNA (pQQH1). […] For panels c and d, the permeant concentration was 10 μM and competing nonradioactive nucleosides were present at a concentration of 1 mM.
Oocytes injected with water or in vitro transcribed RNA from pQQH1 were incubated with radiolabeled permanent (10 μM) for 30 min (open columns) or 1 h (hatched columns) at 20° C. Each value represents the mean ±S. E. of 8-10 ooctyes.
(§2) Remaining template was removed by digestion with RQ1 DNase. Oocytes were treated with collagenase to remove follicular layers (Huang et al, 1993) and injected with 10 ng of pQQH1 cRNA or water. […] At the end of the incubation, extracellular label was removed by six rapid ice-cold washes in the appropriate transport buffer. Individual oocytes were dissolved in 5% SDS for quantitation of oocyte-associated ^3 H by liquid scintillation counting (LS 6000 IC, Beckman).

[6] = tested on: human erythrocyte es transporter; details: cited from earlier work
hCNT1b = target: T3, hCNT1b (Homo sapiens, UniProt O00337); experiment: inhibition of hCNT1b-mediated influx of [3H]uridine in Xenopus oocytes; assay type: cell-based; details: uridine 10 μM
T3 sequence (O00337 2-649 V189I/N409S/D521N): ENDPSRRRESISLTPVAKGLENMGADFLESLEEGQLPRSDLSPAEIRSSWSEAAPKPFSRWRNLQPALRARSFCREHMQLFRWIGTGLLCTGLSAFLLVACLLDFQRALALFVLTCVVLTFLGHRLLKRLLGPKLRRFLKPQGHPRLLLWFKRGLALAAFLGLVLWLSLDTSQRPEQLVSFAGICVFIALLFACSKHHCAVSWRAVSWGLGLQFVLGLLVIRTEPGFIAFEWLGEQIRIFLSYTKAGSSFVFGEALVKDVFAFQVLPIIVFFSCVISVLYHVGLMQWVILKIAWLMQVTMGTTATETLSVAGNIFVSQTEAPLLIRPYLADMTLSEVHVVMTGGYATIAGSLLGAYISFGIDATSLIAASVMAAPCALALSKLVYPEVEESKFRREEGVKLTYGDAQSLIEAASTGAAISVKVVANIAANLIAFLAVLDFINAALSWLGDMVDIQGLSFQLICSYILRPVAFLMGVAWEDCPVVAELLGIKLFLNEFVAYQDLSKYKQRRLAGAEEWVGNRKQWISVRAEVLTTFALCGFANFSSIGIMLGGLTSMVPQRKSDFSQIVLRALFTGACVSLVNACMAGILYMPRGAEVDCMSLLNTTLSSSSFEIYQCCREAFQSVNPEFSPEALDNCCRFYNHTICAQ
Description: H2 O, water-injected oocytes.

CNT1 [7] = target: T2, CNT1; experiment: inhibition of CNT1-mediated nucleoside (uridine, AZT, ddC) transport in Xenopus oocytes; assay type: cell-based
Procedure: as §1, §2

ei transporters = details: Paterson et al, 1991; cited from earlier work
CNT1 [8] = target: T2, CNT1; experiment: inhibition of CNT1-mediated nucleoside (uridine, AZT, ddC) transport in Xenopus oocytes; assay type: cell-based; details: 1 μM
[9] = tested on: isolated perfused rat kidneys; details: secreted at higher concentrations; Trimble and Coulson, 1984; cited from earlier work
CNT1 [10] = target: T2, CNT1; details: Yao et al. unpublished; read-out: inhibition constant, recombinant rCNT1; cited from earlier work
hCNT1a [11] = target: T1, hCNT1a; experiment: cell-based
Procedure: as §3, §4

[12] = substrate: O=c1ccn([C@@H]2O[C@H](CO)[C@@H](O)[C@H]2O)c(=O)[nH]1; experiment: cells, lysate or membranes; details: other: rat CNT1, 20° C., pH 7.5
[13] = substrate: Nc1ccn([C@H]2CC[C@@H](CO)O2)c(=O)n1; experiment: uptake/influx of radiolabelled nucleosides in Xenopus oocytes injected with pQQH1 (rat CNT1) cRNA; assay type: cell-based; details: other: rate versus concentration studies, pH 7.5, 20.0 °C
Procedure: Oocytes were injected with water or RNA transcribed in vitro from the nucleoside transporter cDNA (pQQH1). Each value represents the mean ±S.E. of 8-10 oocytes. […] Apparent Km and Vmax values were determined by non-linear regression analysis (ENZFITTER, Elsevier-Biosoft). […] Panel d: thymidine transport in oocytes injected with pQQH1 cRNA. For panels c and d, the permeant concentration was 10 μM and competing nonradioactive nucleosides were present at a concentration of 1 mM. Fluxes were not corrected for the small (<0.1%) contribution of endogenous activity. […]
Expression of cNT1 in Oocytes-Plasmid pQQH1 DNA was linearized with Xbal and transcribed with T7 polymerase in the presence of the m^7 GpppG cap using the MEGAscript (Ambion) transcription system. […] Nucleoside uptake was measured after 3 days and was traced with the respective ^3 H-labeled nucleoside (Moravek Biochemicals)(20 μC/ml), which was purified by high performance liquid chromatography before use. […] Individual oocytes were dissolved in 5% SDS for quantitation of oocyte-associated ^3 H by liquid scintillation counting (LS 6000 IC, Beckman).
Defolliculated oocytes (Huang et al. 1993) were injected with either 10 nl of water containing 10 ng RNA transcript or 10 nl of water alone. Nucleoside uptake was measured after 3 d and was traced with the respective [^3 H] or [^14 C]nucleoside (Moravek Biochemicals)(5 μC 3H/ml, 1 μC 14C/ml). […]

[14] = Fang et al, 1996, Yao et al. unpublished

For `Cc1cn([C@H]2C[C@H](N=[N+]=[N-])[C@@H](CO)O2)c(=O)[nH]c1=O` [AZT, 3'-azido-3'-deoxythymidine], the “rate of entry into human erythrocytes relative to those of thymidine and cytidine” value (human erythrocytes) is listed as < 2%, the “excretion in the urine” value ([1]; Good et al. 1990, Griffiths et al. 1992) is listed as “excreted in the urine either unchanged or as the glucuronide conjugate” and the “absorption by the gastrointestinal systems of humans and rats” value ([1]; oral) is listed as “absorbed efficiently”. The “cit-mediated uridine transport, inhibition” value (cit transporter) was “inhibited”, the “inhibition of hCNT1a-mediated influx of uridine” value (hCNT1a [2]; uridine 10 μM, analog 5 mM (FIG. 12A)) was “inhibited” and the “transport by hCNT1” value (hCNT1a [3]) was “transport”. For the same molecule, the “mediated flux, hCNT1a” value (hCNT1a [3]) was 4.79±0.41 pmol/oocyte.10 min^-1, the “uptake of [3H]AZT by rat jejunum in vivo” value (rat jejunum) was “Na^+ -dependent” and the net renal handling (kidney) was “net renal secretion”. For the same molecule, the “transport by recombinant rCNT1 in oocytes” value (CNT1 [4]; Yao et al. in press) was “transports AZT”, the CNT1-mediated uptake/transport (CNT1 [5]; 10 μM permeant) was “large increases” and the “mediated flux, rCNT1” value (CNT1 [5]) was 4.10±0.34 pmol/oocyte.10 min^-1. For the same molecule, the “Na+ dependence of initial rate of expressed uptake” value (CNT1 [5]; 10 μM, 10-min flux) was 77%, the Vmax (CNT1 [5]; rat CNT1, permeant = labelled substance) was 28 pmol/oocyte.min^-1 and the Km (CNT1 [5]; rate versus concentration studies, rat CNT1, read-out: apparent Km) was 490 µM. For the same molecule, the “transport by equilibrative nucleoside transporters” value [6] was “not transported”, the “inhibition of hCNT1b-mediated influx of uridine” value (hCNT1b; analog 5 mM (FIG. 12B)) was “inhibited” and the IC50 (CNT1 [7]) was < 1 mM.

For `O=[N+]([O-])c1ccc(CSc2ncnc3c2ncn3[C@@H]2O[C@H](CO)[C@@H](O)[C@H]2O)cc1` [NBMPR, 6-[(4-nitrobenzyl)thio]-9-p-D-ribofuranosylpurine], the “sensitivity of ei systems to inhibition” value (ei transporters) is listed as “low (micromolar) sensitivity”, the “effect on CNT1 transport” value (CNT1 [8]) is listed as “unaffected” and the “inhibition of equilibrative nucleoside transport in human erythrocytes, concentrations” value ([6]; Young and Jarvis, 1983, Paterson et al) is listed as “namomolar concentrations”.

For `Nc1ncnc2c1ncn2[C@@H]1O[C@H](CO)[C@@H](O)[C@H]1O` [adenosine], the “plasma concentration at which adenosine is reabsorbed” value [9] is listed as “less than 50 μM”, the Ki (hCNT1a [2]) is listed as 50 ± 11 µM and the “inhibition of uridine fluxes, hCNT1a” value (hCNT1a [2]; uridine 10 μM, competitor 1 mM (FIG. 12A), guanosine also in FIG. 13) is listed as “inhibited”. The “uridine:adenosine flux ratio, hCNT1a” value (hCNT1a [3]; 10 μM) was 75, the “mediated flux, hCNT1a” value (hCNT1a [3]) was 0.49±0.03 pmol/oocyte.10 min^-1 and the “mediated influx, hCNT1a (adenosine/deoxyadenosine comparison)” value (hCNT1a [3]; 10 μM) was 0.60±0.01 pmol/oocyte.10 min^-1. The net renal handling (kidney) was “net renal reabsorption”, the “Vmax relative to uridine, recombinant rCNT1” value (CNT1 [4]; [14]) was “lower Vmax” and the “affinity of transport by recombinant rCNT1” value (CNT1 [4]; [14]) was “same high affinity as uridine”. For the same molecule, the Ki (CNT1 [10]) was 29 µM, the “uridine:adenosine flux ratio, rCNT1” value (CNT1 [5]; 10 μM) was 110 and the “mediated flux, rCNT1” value (CNT1 [5]) was 0.51±0.05 pmol/oocyte.10 min^-1. For the same molecule, the “mediated influx, rCNT1 (adenosine/deoxyadenosine comparison)” value (CNT1 [5]; 10 μM) was 0.70±0.0 pmol/oocyte.10 min^-1, the “inhibition of uridine fluxes, hCNT1b” value (hCNT1b; competitor 1 mM (FIG. 12B)) was “inhibited” and the “selective inhibition of uridine and thymidine fluxes (rCNT1)” value (CNT1 [7]; adenosine, thymidine, cytidine, uridine>>guanosine, inosine) was “selective inhibition”.

In the case of `Nc1ncnc2c1ncn2[C@H]1C[C@H](O)[C@@H](CO)O1` [deoxyadenosine, 2'-deoxyadenosine], the Ki (hCNT1a [11]) is reported as 46 ± 14 µM, the “permeant quality, hCNT1” value (hCNT1a [3]) is reported as “poor hCNT1 permeants” and the “mediated influx, hCNT1a (adenosine/deoxyadenosine comparison)” value (hCNT1a [3]; 10 μM) is reported as 0.14±0.02 pmol/oocyte.10 min^-1. For the same molecule, the net renal handling (kidney) was “net renal secretion” and the “mediated influx, rCNT1 (adenosine/deoxyadenosine comparison)” value (CNT1 [5]; 10 μM) was 0.11±0.02 pmol/oocyte.10 min^-1.

B1: CNT1 (Rattus norvegicus) (protein)
chain: MADNTQRQRESISLTPMAHGLENMGAEFLESMEEGRLPHSHSSLPEGEGGLNKAERKAFSRWRSLQPTVQARSFCREHRQLFGWICKGLLSTACLGFLMVACLLDLQRALALLIITCVVLVFLAYDLLKRLLGSKLRRCVKFQGHSCLSLWLKRGLALAAGVGLILWLSLDTAQRPEQLVSFAGICVFLVLLFAGSKHHRAVSWRAVSWGLGLQFVLGLFVIRTEPGFIAFQWLGDQIQVFLSYTEAGSSFVFGEALVKDVFAFQVLPIIIFFSCVMSVLYYLGLMQWVILKIAWLMQVTMGTSATETLSVAGNIFVSQTEAPLLIRPYLADMTLSEVHVVMTGGYATIAGSLLGAYISFGIDAASLIAASVMAAPCALALSKLVYPEVEESKFRSENGVKLTYGDAQNLLEAASAGAAISVKVVANIAANLIAFLAVLAFVNAALSWLGDMVDIQGLSFQLICSYVLRPVAFLMGVAWEDCPVVAELLGIKFFLNEFVAYQELSQYKQRRLAGAEEWLGDKKQWISVRAEILTTYALCGFANFSSIGIMLGGLTSLVPQRRSDFSQIVLRALITGAFVSLLNACVAGILYVPRGVEVDCVSLLNQTVSSSSFEVYLCCRQVFQSTSSEFSQVALDNCCRFYNHTVCT
notes: identified as pQQH1, has an open reading frame encoding a 648-amino acid protein; expressed in transfected cells; host or cells: Xenopus oocytes injected with pQQH1 cRNA
With B1 the Km [12] was 37 µM and the Km [13] was 0.51 mM.
